Experimental data reported in ChEMBL document CHEMBL1201862, “PubChem BioAssay data set” (2004).
The source made the active and inactive calls.

What was measured:
[1] = biological target: T1, Ubiquitin-conjugating enzyme E2 N (Homo sapiens, UniProt P61088); type: functional
T1 sequence (P61088 whole entry): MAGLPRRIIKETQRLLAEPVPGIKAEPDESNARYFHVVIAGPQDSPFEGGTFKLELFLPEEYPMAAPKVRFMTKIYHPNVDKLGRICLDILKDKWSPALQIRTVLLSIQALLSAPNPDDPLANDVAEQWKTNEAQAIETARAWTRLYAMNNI

[2] = biological target: T1, Ubiquitin-conjugating enzyme E2 N; type: functional; remark: listed apart in the source
[3] = biological target: T2, Bcl-2-related protein A1 (Mus musculus, UniProt Q07440); type: functional;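 note: confirmatory dose–response counterscreen on Bfl-1, used to check hits from a UBC13 polyubiquitin inhibitor campaign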
T2 sequence (Q07440 whole entry): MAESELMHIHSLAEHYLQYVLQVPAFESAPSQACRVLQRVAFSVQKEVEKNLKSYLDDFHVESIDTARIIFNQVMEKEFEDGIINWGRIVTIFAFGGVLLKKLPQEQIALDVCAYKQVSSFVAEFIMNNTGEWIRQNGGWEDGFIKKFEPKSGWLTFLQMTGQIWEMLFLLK

[4] = biological target: Intestinal-type alkaline phosphatase (Homo sapiens, UniProt P09923); experiment: inhibition of human intestinal alkaline phosphatase – biochemical, dose response (AID 488876); type: functional
Sequence of Intestinal-type alkaline phosphatase (Homo sapiens, UniProt P09923) (P09923 whole entry): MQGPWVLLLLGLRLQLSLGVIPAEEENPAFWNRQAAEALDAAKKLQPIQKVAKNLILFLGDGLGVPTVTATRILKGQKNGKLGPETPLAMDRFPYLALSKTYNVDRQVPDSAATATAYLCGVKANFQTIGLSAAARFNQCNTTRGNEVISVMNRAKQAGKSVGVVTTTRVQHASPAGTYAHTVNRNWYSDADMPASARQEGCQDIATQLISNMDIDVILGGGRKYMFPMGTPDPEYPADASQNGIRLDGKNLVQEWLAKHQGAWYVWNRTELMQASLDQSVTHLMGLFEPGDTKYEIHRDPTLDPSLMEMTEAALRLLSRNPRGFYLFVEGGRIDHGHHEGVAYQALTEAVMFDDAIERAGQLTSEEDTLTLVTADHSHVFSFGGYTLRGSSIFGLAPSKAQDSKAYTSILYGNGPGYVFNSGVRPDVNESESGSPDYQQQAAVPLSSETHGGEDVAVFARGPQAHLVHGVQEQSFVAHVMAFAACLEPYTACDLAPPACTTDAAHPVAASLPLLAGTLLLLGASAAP

[5] = biological target: T3, Alkaline phosphatase, tissue-nonspecific isozyme (Homo sapiens, UniProt P05186); experiment: TNAP enzyme inhibition by screening hits, dose response, selectivity assay for mouse IAP inhibitor project, biochemical, human TNAP, uHTS hits (AID 488906); type: functional
T3 sequence (P05186 whole entry): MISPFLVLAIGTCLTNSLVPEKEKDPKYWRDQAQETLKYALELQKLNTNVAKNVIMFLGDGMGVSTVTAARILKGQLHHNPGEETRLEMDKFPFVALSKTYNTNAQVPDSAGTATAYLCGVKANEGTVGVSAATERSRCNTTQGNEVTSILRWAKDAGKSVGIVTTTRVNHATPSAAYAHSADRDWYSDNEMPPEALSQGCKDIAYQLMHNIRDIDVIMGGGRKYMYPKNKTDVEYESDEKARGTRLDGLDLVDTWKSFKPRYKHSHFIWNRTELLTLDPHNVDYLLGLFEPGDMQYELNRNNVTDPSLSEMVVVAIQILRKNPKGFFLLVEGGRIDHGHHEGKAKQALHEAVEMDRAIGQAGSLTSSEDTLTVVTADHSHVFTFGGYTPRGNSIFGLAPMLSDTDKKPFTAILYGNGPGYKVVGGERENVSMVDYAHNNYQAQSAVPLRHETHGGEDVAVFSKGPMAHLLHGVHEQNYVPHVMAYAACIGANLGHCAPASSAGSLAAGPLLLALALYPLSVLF

[6] = biological target: T4, Carboxy-terminal domain RNA polymerase II polypeptide A small phosphatase 1 (Homo sapiens, UniProt Q9GZU7); experiment: inhibitors of CTDSP1, concentration-response testing, biochemical assay, absorbance-based, actives from ultra-high-throughput screening (AID 540297); type: functional
T4 sequence (Q9GZU7 whole entry): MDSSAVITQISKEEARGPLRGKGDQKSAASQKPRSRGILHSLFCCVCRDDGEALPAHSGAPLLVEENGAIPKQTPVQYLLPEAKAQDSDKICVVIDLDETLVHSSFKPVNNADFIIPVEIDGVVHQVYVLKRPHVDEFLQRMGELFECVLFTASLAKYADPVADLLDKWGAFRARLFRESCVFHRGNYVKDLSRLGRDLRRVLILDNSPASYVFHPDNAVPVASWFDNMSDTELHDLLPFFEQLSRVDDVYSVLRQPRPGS

[7] = biological target: Estrogen receptor beta (Homo sapiens, UniProt Q92731); experiment: ERβ–SRC-3 coactivator interaction inhibitors, confirmation, orthogonal assay, biochemical, ELISA, streptavidin-HRP readout (AID 1060)
Sequence of Estrogen receptor beta (Q92731 whole entry): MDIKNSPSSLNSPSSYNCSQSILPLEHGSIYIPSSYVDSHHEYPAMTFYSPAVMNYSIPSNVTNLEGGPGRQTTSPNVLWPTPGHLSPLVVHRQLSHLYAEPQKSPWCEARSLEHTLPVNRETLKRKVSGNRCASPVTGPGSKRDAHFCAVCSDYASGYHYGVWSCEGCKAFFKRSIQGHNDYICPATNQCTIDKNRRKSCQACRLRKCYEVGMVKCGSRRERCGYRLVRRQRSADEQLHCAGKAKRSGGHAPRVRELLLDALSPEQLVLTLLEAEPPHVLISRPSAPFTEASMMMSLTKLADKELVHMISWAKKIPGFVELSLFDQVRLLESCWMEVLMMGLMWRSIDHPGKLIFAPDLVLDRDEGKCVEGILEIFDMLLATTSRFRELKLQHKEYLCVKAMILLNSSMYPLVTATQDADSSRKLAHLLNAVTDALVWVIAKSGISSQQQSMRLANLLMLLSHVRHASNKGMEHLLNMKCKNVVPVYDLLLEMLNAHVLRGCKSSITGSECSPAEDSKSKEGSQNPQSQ

[8] = biological target: Intestinal-type alkaline phosphatase (Mus musculus, UniProt P24822); experiment: PubChem AID 488785; type: functional
Sequence of Intestinal-type alkaline phosphatase (Mus musculus, UniProt P24822) (P24822 whole entry): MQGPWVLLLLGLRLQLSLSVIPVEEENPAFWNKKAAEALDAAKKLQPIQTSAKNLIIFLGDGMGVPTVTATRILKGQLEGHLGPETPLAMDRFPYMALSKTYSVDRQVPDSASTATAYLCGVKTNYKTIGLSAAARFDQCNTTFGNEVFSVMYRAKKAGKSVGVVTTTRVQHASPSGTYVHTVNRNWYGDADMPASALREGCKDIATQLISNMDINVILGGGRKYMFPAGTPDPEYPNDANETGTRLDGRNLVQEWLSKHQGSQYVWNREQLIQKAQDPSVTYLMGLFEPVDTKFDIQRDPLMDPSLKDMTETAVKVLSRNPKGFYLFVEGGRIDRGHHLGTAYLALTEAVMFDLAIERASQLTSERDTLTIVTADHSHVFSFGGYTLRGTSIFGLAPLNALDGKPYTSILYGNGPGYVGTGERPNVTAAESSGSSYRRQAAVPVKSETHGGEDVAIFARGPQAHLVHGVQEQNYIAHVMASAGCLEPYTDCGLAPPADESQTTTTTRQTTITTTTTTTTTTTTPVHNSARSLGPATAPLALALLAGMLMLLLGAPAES

[9] = biological target: Glyceraldehyde-3-phosphate dehydrogenase (Homo sapiens, UniProt P04406)
Sequence of Glyceraldehyde-3-phosphate dehydrogenase (P04406 whole entry): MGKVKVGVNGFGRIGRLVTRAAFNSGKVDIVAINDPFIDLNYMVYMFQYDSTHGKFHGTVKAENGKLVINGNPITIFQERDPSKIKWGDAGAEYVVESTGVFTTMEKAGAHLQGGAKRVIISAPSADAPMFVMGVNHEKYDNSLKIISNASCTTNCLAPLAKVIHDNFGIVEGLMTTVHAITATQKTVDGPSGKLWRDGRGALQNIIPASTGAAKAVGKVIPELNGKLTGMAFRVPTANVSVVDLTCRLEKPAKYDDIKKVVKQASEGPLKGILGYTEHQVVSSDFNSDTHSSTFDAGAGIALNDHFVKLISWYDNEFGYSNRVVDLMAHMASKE

[10] = biological target: T3, Alkaline phosphatase, tissue-nonspecific isozyme; experiment: human TNAP enzyme inhibitors, SAR follow-up, biochemical, luminescent, dose response (AID 1056)
[11] = system: BJ; experiment: cells; type: functional, cell-based; details: Homo sapiens
[12] = system: HEK293; experiment: cells; type: functional, cell-based; details: Homo sapiens
[13] = system: BJ; experiment: cytotoxicity toward BJ-TERT-LT-ST fibroblasts, dose response, cell-based, RAS-independent, luminescence (AID 1935); type: functional; details: Homo sapiens;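 note: BJ fibroblasts immortalized with TERT plus LT and ST oncogenes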
[14] = system: BJ; experiment: cytotoxicity toward Ras-transformed BJeLR fibroblasts, dose response, cell-based, alamar blue fluorescence, cherrypicked samples (AID 2631); type: functional; details: Homo sapiens;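 note: confirmatory dose-response assay in RAS-dependent BJ fibroblasts engineered with TERT, LT and ST, with cytotoxicity read by fluorescence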
[15] = system: HEK293; experiment: NOD1 signaling inhibitors, primary screen, cell-based, luminescence, uHTS (AID 1578); type: functional; details: Homo sapiens
[16] = biological target: 1-acylglycerol-3-phosphate O-acyltransferase ABHD5/Perilipin-5 (Homo sapiens, UniProt Q00G26+Q8WTS1); experiment: Luminescence-based biochemical high throughput dose response assay for inhibitors of the interaction of the lipase co-activator protein, abhydrolase domain containing 5 (ABHD5) with perilipin-5 (MLDP; PLIN5) (2K validation set). [Related pubchem assays (depositor defined):AID493035, AID493241]
Sequence of 1-acylglycerol-3-phosphate O-acyltransferase ABHD5/Perilipin-5 (Q00G26 whole entry, the tested form may be a part): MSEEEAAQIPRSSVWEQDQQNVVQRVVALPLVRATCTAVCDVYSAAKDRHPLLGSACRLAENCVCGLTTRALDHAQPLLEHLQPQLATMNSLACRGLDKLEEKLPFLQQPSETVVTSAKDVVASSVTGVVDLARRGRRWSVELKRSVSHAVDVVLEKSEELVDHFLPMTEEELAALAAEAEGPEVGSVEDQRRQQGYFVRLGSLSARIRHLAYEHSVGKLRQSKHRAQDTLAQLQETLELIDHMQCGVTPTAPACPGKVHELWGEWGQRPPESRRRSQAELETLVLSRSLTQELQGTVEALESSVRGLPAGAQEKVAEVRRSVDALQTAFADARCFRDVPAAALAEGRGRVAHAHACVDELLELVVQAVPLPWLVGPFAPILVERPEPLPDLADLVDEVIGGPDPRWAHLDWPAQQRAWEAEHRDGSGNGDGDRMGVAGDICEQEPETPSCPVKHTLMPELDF
Sequence of 1-acylglycerol-3-phosphate O-acyltransferase ABHD5/Perilipin-5 (Q8WTS1 whole entry, the tested form may be a part): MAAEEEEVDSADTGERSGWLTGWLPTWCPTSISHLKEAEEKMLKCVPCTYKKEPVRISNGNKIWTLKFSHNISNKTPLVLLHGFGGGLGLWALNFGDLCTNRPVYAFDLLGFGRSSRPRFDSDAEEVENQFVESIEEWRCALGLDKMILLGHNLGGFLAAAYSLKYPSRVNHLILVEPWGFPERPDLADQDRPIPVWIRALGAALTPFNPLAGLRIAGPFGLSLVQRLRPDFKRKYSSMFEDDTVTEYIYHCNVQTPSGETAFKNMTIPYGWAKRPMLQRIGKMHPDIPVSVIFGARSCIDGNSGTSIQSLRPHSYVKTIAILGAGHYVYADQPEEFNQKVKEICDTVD

[17] = system: HEK293; experiment: cells; type: functional, cell-based; details: Homo sapiens; remark: listed apart in the source
[18] = system: BJ; experiment: cytotoxicity toward BJ-TERT fibroblasts, dose response, cell-based, RAS-independent, luminescence (AID 1933); type: functional; details: Homo sapiens
[19] = biological target: Nucleotide-binding oligomerization domain-containing protein 2 (Homo sapiens, UniProt Q9HC29); experiment: NOD2 signaling inhibitors, cell-based, luminescence, uHTS, HEK293 (AID 1566); type: functional
Sequence of Nucleotide-binding oligomerization domain-containing protein 2 (Q9HC29 whole entry, the tested form may be a part): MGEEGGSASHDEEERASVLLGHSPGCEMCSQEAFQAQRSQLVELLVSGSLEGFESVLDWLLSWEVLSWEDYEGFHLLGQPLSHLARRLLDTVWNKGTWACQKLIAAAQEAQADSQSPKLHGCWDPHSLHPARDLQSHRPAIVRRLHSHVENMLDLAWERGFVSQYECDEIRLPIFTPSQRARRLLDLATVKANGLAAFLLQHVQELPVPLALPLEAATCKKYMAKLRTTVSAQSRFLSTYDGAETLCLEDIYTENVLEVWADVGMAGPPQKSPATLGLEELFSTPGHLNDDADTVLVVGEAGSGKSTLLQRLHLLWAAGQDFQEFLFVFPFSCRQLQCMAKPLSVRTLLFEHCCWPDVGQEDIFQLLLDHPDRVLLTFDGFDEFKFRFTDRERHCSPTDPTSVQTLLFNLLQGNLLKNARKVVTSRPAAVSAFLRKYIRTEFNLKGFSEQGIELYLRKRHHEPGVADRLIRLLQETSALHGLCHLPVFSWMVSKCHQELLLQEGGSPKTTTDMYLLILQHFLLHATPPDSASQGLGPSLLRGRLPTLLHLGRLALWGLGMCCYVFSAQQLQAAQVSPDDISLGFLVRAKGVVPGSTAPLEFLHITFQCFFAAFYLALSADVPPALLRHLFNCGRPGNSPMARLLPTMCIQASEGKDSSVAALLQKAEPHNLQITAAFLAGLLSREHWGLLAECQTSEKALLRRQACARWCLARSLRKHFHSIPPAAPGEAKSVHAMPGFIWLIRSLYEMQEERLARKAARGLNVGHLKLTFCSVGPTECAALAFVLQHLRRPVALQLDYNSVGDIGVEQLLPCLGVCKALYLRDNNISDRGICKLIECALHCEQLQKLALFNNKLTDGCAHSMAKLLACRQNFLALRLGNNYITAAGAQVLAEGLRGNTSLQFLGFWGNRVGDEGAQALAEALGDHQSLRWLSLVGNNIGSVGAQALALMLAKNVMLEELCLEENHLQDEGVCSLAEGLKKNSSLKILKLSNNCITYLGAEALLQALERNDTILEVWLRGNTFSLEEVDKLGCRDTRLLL

[20] = microbe, parasite or virus in culture; type: functional; details: Mycobacterium tuberculosis
[21] = Luminescence Cell-Based Dose Retest to Confirm Inhibitors of Cancer Stem Cells. [Related pubchem assays (depositor defined):AID2717, AID2721]; type: functional; details: Homo sapiens
[22] = biological target: T5, Replicative DNA helicase DnaB (Mycobacterium tuberculosis, UniProt P9WMR3); experiment: DnaB intein splicing inhibitors, dose response, biochemical, cell-free fluorescence (AID 449749); type: functional
T5 sequence (P9WMR3 whole entry): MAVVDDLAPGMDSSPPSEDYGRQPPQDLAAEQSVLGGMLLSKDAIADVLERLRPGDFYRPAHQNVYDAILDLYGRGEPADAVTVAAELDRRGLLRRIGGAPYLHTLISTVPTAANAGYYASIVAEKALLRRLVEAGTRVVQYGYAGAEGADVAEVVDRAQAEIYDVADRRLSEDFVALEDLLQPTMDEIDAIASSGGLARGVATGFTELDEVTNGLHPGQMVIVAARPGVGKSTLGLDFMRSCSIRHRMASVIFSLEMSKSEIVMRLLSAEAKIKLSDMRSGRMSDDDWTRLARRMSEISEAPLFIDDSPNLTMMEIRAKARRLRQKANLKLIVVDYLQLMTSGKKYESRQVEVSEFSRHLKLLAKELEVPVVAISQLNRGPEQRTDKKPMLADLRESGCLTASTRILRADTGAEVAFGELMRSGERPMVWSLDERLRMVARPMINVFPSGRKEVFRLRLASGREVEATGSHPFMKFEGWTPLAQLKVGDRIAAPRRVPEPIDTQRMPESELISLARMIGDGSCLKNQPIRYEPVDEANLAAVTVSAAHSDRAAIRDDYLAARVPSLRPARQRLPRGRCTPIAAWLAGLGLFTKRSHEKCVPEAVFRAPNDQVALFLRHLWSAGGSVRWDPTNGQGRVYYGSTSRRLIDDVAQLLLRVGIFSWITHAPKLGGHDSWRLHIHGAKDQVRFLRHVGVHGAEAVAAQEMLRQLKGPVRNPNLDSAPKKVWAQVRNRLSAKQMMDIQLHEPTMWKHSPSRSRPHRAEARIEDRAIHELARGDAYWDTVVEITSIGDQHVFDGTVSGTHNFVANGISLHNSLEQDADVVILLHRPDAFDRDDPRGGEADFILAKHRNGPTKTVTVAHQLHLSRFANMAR

[23] = growth suppression of beta-catenin-knockout colon cells, dose response, cell-based, HCT116, human colon tumor (AID 1045); type: functional;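 note: HCT116 colon tumor cells with beta catenin knocked out; cells exposed to compound for 60 hours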
[24] = system: HEK293; experiment: NOD2 signaling inhibitors in MDP-stimulated cells, cell-based, uHTS, luminescence (AID 2001); type: functional; details: Homo sapiens
[25] = cytotoxicity toward DRD oncogenic fibroblasts, dose response, cell-based, non-viral oncogenic, luminescence (AID 1934); type: functional; details: Homo sapiens
[26] = biological target: Perilipin-1/ABHD5 (Homo sapiens, UniProt O60240+Q8WTS1); experiment: Luminescence-based biochemical high throughput dose response assay for inhibitors of the interaction of the lipase co-activator protein, abhydrolase domain containing 5 (ABHD5) with perilipin-1 (PLIN1) (2K validation set). [Related pubchem assays (depositor defined):AID493027, AID493057]
Sequence of Perilipin-1/ABHD5 (Q8WTS1 whole entry, the tested form may be a part): as the sequence (Q8WTS1 whole entry, the tested form may be a part) above
Sequence of Perilipin-1/ABHD5 (O60240 whole entry, the tested form may be a part): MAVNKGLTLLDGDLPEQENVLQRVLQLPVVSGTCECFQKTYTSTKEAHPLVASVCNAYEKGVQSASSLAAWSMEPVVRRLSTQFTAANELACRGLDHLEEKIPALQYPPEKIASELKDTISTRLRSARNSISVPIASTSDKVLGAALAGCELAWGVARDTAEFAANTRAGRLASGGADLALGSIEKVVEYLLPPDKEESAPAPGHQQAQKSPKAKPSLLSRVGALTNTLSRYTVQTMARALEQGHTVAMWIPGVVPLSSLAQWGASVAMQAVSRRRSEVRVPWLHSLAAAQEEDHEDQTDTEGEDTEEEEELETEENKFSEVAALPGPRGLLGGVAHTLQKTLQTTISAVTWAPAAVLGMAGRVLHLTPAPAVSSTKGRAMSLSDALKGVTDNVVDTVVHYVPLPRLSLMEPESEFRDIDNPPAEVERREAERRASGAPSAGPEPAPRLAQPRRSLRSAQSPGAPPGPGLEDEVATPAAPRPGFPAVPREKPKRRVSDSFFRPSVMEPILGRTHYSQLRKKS

[27] = biological target: T6, Protein RecA (Mycobacterium tuberculosis, UniProt P9WHJ3); experiment: Fluorescence Cell-Free Homogeneous Dose Retest to Identify Inhibitors of RecA-Intein Splicing Activity. [Related pubchem assays (depositor defined):AID2097, AID2223, AID489010, AID492950]; type: functional
T6 sequence (P9WHJ3 whole entry): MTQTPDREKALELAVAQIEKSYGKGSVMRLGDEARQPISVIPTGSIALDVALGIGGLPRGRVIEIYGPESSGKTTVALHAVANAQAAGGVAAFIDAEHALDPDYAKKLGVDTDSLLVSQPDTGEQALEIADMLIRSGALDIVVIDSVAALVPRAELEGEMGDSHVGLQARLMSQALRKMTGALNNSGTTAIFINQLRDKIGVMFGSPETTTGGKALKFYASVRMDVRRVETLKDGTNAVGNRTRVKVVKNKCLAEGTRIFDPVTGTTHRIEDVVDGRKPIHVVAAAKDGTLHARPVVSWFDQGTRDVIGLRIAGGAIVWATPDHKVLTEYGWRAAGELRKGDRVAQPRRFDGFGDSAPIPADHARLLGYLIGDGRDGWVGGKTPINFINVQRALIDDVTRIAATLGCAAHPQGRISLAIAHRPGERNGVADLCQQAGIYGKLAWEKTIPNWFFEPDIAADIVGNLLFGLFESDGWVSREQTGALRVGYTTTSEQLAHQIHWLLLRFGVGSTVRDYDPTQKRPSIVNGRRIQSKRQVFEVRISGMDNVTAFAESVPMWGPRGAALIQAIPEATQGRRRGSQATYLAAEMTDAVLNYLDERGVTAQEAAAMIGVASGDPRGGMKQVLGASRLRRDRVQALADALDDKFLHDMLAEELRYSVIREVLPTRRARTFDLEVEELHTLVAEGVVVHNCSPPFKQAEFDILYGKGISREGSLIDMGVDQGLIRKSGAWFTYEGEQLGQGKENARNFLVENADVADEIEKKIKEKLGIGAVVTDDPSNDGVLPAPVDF

[28] = growth suppression of PTEN-null colon cells, dose response, cell-based, HCT116 PTEN knockout (AID 1047); type: functional;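 note: HCT116 colon tumor cells with PTEN knocked out; cells exposed to compound for 60 hours before readout; potency for loss of cell viability measured by luminescence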
[29] = system: HEK293; experiment: cells; type: functional, cell-based; details: Homo sapiens; remark: listed apart in the source

For `COc1ccc(/C=N\NC(=O)c2sc(N)nc2C)cc1OC`, the IC50 [1] was 0.507 µM (active), the IC50 [2] was 0.548 µM (active) and the IC50 [3] was > 20 µM (inactive).

With `CCOc1ccccc1N1CCN(S(=O)(=O)c2ccc3c4c(cccc24)C(=O)N3)CC1` the IC50 [4] was > 100 µM (inactive), the IC50 [5] was 81.2 µM (active) and the IC50 [6] was 7.47 µM (active). The IC50 [7] was 9.19 µM (not active) and the IC50 [8] was 7.13 µM (active).

For `COc1ccc(Cl)cc1NC(=S)NCCC(c1ccccc1)c1ccccc1`, the IC50 [4] was 15.9 µM (active), the IC50 [5] was 23.9 µM (active) and the IC50 [8] was 11.3 µM (active).

For `CC(C)CSc1nnc(N)[nH]1`, the IC50 [9] was > 100 µM (not active) and the IC50 [10] was 60.8 µM (active).

With `Cc1ccc(NC(=O)C[n+]2ccn(C3=C([O-])c4ccccc4C3=O)c2)cc1` the IC50 [1] was 9.72 µM (active), the IC50 [2] was 14.4 µM (active) and the IC50 [3] was > 20 µM (inactive).

With `COc1ccc(CN(CCC(c2ccccc2)c2ccc(OC(C)C)cc2)C(=O)CCl)cc1OC` (stereo not given) the EC50 [11] was 4.25 µM (active), the IC50 [12] was 6.94 µM (active) and the EC50 [13] was 4.09 µM (inconclusive). The EC50 [14] was 3.43 µM (active), the EC50 [15] was 17.9 µM (active) and the IC50 [16] was 3.57 µM (active). The IC50 [17] was > 20 µM (inactive), the EC50 [18] was 0.605 µM (active) and the EC50 [19] was > 20 µM (inactive). The CC50 [20] was 1.49 µM (active), the AC50 [21] was 1.25 µM (active) and the AC50 [22] was 0.335 µM (active). For the same molecule, the EC50 [23] was 6.08 µM (active), the IC50 [24] was 13.9 µM (inactive) and the EC50 [25] was 3.74 µM (active). The IC50 [26] was 3.17 µM (active), the EC50 [27] was 0.333 µM (active) and the EC50 [28] was 6.29 µM (active). For the same molecule, the IC50 [29] was 10.6 µM (active).
